Results on one molecule are retold here after patent US11926645B2, “Compounds and methods for treatment of viral infections” (priority 2020, dated 2024).

Like-named read-outs stand apart in the source and are kept apart here.

Data set [1] relates to SARS-CoV-2-Nluc viruses. Nature of the data set: microbe, parasite or virus in culture. In kind it is cell-based.
Data set [2] relates to SARS-CoV-2 CA/2020. Nature of the data set: microbe, parasite or virus in culture. The conditions noted are these: Severe acute respiratory syndrome coronavirus 2, Vero C1008. In kind it is cell-based.
The subject of data set [3] is SARS-CoV-2 2019-nCoV/USA-WA1/2020. In kind it is in vivo.
The target in data set [4] is T1, CES2 (Homo sapiens, UniProt O00748).
T1 construct: purchased
T1 sequence (O00748 27-559): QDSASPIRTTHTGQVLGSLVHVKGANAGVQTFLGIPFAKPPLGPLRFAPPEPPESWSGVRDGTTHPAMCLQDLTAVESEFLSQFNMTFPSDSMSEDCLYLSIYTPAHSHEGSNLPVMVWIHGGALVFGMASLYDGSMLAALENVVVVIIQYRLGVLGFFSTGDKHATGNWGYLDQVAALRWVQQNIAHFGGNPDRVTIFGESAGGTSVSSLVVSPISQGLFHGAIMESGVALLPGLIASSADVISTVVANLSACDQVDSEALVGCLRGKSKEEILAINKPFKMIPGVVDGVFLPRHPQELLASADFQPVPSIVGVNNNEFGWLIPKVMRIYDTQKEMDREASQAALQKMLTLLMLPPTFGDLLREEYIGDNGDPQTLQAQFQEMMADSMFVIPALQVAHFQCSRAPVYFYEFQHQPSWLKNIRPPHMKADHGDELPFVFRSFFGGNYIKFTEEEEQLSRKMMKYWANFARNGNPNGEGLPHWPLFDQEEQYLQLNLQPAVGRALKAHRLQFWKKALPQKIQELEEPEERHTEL
Nature of the data set: CES1/2 stability, CES2. It counts as in vitro ADME. The following applies: CES2 Supersome preparation; Supersome preparations, CES 1.5 mg/ml, 2 μM substrate, pH 7.4, 37° C.; read-out: CES2 T1/2. As for the experimental part: Test compounds or positive control substrates (oseltamivir for CES1 enzymes or procaine for CES2) were incubated with individual Supersome preparations (final CES concentration 1.5 mg/ml) in 0.1 M potassium phosphate buffer (pH 7.4) at 37° C. Substrates were added to a final concentration of 2 μM to initiate the reaction. The final incubation volume was 250 μL. Aliquots were removed after incubation for 0, 10, 30, 60 and 120 min. The reactions were stopped by the addition of IS/Q. Following protein precipitation and centrifugation, 150 μL of supernatant was diluted with an equal volume of water prior to LC-MS analysis. For procaine 150 μL of supernatant was dried down and reconstituted with 250 μL water. All samples were analyzed by LC-MS and the PAR values were used for quantification.

Data set [5] in a line: in vitro. In kind it is in vitro ADME. The following applies: s9, pH 7.4. As for the experimental part:
Duplicate aliquots of test compound or positive control substrate (GS-7340) were added to S9 stock diluted with 100 mM potassium phosphate buffer, pH 7.4, to obtain a protein concentration of 2.4 mg/mL. The S9 metabolic reactions were initiated by the addition of the substrates to the S9 reaction mixture to a final concentration of 2 μM. At 2, 12, 25, 45, 65 and 90 min, 25 μL aliquots of the reaction mixture were transferred to plates containing 225 μl of IS/Q solution. After quenching, the plates were centrifuged at 3000×g for 30 minutes, and 150 μl, aliquots of each supernatant were diluted with 150 μl, water. Aliquots (10 μL) of the diluted supernatant were analyzed on a Thermo Q-Exactive mass spectrometer as described below.
Quantification of test compounds and controls was performed by analyte/internal standard peak area ratio (PAR) values measured on a Thermo Q-Exactive mass spectrometer coupled to a Dionex UltiMate 3000 HPLC with a Leap Technologies HTC PAL autosampler. The column used was a Thermo Hypersil GOLD (1.9 μm particle size, 2.1×50 mm). Mobile phase A consisted of 0.1% (v/v) formic acid in water. Mobile phase B consisted of 0.1% (v/v) formic acid in acetonitrile. Elution of analytes was achieved by a series of linear gradients of acetonitrile in water containing 0.1% (v/v) formic acid. The mass spectrometer was calibrated on a weekly basis and mass tolerance of 5 ppm was used.

A short description of data set [6]: in vitro. The conditions noted are these: human, PrestoBlue.
Where [7] appears, read: […], Compound 1 10 mg/kg and 3 mg/kg, EIDD-2801/molnupiravir 5 mg/kg.

As to `CC(C)C(=O)OC[C@H]1O[C@@](C#N)(c2ccc3c(N)ncnn23)[C@H](OC(=O)C(C)C)[C@@H]1OC(=O)C(C)C` [Compound 1, (2R,3R,4R,5R)-2-(4-aminopyrrolo[2,1-f][1,2,4]triazin-7-yl)-2-cyano-5-((isobutyryloxy)methyl)tetrahydrofuran-3,4-diyl bis(2-methylpropanoate)], the EC50 in data set [1] (Severe acute respiratory syndrome coronavirus 2, 48 h, read-out: SARS-CoV2 EC50) was 2.7 µM; in data set [1] (Severe acute respiratory syndrome coronavirus 2, host cells A549-ACE2, read-out: EC50, WA1/2020-nano luciferase), 0.98 µM; in data set [2] it was 0.21 µM. Further, the “Clinical signs versus vehicle animals” value in data set [3] (setting [7]) is on record as “No significant differences in clinical signs”. The “Virus burden in the turbinates” value in data set [3] (setting [7]) was “reduced burden in the turbinates”. Moreover, the “Shed virus load (nasal lavages) versus vehicle” value in data set [3] ([…], Compound 1 10 mg/kg and 3 mg/kg, EIDD-2801/molnupiravir 5 mg/kg, within 12 hours of treatment onset) is given as “lower in all treated animals than in the vehicle group”. Besides, the “Viral RNA copies in nasal lavages and turbinates versus vehicle” value in data set [3] ([…], Compound 1 10 mg/kg, EIDD-2801/molnupiravir 5 mg/kg) was “statistically significant mean reduction”. Also, the “Clinical signs (body temperature, weight gain)” value in data set [3] (in vivo, po, 20 mg/kg) was “only animals of the vehicle group showed elevated body temperature”. Further, the “Shed SARS-CoV-2 load in nasal lavages” value in data set [3] (in vivo, po, 20 mg/kg) was “transiently detectable in lavages of only one ferret”. In addition, the “Viral RNA copy numbers in turbinates, difference between vehicle and treatment groups” value in data set [3] (in vivo, po, 20 mg/kg) is given as “three”. The “Virus in nasal turbinates 4 days after infection” value in data set [3] (in vivo, po, 20 mg/kg) is recorded as “undetectable”. Moreover, the half-life at 2 μM in data set [4] was < 1 min; in data set [5] it was 2 min. For the same molecule, the CC50 in data set [6] (CC50, DF2 HAE, primary diseased (asthma) HAE donor DF2, 72 hours) is 86 µM; in data set [6] (CC50, F2 HAE, primary HAE donor F2, 72 hours), 43.8 µM; in data set [6] (CC50, F3 HAE, primary HAE donor F3, 72 hours), 43.8 µM; in data set [6] (CC50, M2 HAE, primary HAE donor M2, 72 hours) it was 39.7 µM; in data set [6] (CC50, M6 HAE, primary HAE donor M6, 72 hours), 92.3 µM.
